Laboratory results published in PubChem BioAssay (NCI).
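Grown in 96-well plates, cells were treated for 48 hours with each compound at five concentrations. Insufficient inhibition: endpoint recorded as highest concentration tested. TGI is the concentration that stops growth completely.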

Tests used:
Experiment in all cases: growth of human tumour cells (NCI), 48 h
HL-60(TB) leukemia = system: HL-60(TB) leukemia
COLO 205 colon = system: COLO 205 colon
DU-145 prostate = system: DU-145 prostate
SF-268 CNS = system: SF-268 CNS
OVCAR-4 ovarian = system: OVCAR-4 ovarian
SNB-75 CNS = system: SNB-75 CNS
OVCAR-5 ovarian = system: OVCAR-5 ovarian
IGROV1 ovarian = system: IGROV1 ovarian
CCRF-CEM leukemia = system: CCRF-CEM leukemia
UACC-257 melanoma = system: UACC-257 melanoma
UACC-62 melanoma = system: UACC-62 melanoma
LOX IMVI melanoma = system: LOX IMVI melanoma
M14 melanoma = system: M14 melanoma
UO-31 renal = system: UO-31 renal
HT29 colon = system: HT29 colon
RXF 393 renal = system: RXF 393 renal
MDA-N = system: MDA-N
PC-3 prostate = system: PC-3 prostate
OVCAR-3 ovarian = system: OVCAR-3 ovarian
HCT-15 colon = system: HCT-15 colon
HCT-116 colon = system: HCT-116 colon
TK-10 renal = system: TK-10 renal
T-47D breast = system: T-47D breast
SK-MEL-2 melanoma = system: SK-MEL-2 melanoma
KM12 colon = system: KM12 colon
MALME-3M melanoma = system: MALME-3M melanoma
CAKI-1 renal = system: CAKI-1 renal
HOP-62 NSCLC = system: HOP-62 NSCLC
MOLT-4 leukemia = system: MOLT-4 leukemia
ACHN renal = system: ACHN renal
SNB-19 CNS = system: SNB-19 CNS
786-0 renal = system: 786-0 renal
SF-539 CNS = system: SF-539 CNS
MCF7 breast = system: MCF7 breast
SK-OV-3 ovarian = system: SK-OV-3 ovarian
MDA-MB-231 breast = system: MDA-MB-231 breast
SW-620 colon = system: SW-620 colon
OVCAR-8 ovarian = system: OVCAR-8 ovarian
MDA-MB-435 = system: MDA-MB-435
BT-549 breast = system: BT-549 breast
NCI-H460 lung = system: NCI-H460 lung
SF-295 CNS = system: SF-295 CNS
HCC-2998 colon = system: HCC-2998 colon
NCI-H23 lung = system: NCI-H23 lung
RPMI-8226 leukemia = system: RPMI-8226 leukemia
A549 NSCLC = system: A549 NSCLC
U251 CNS = system: U251 CNS
SK-MEL-5 melanoma = system: SK-MEL-5 melanoma
K-562 leukemia = system: K-562 leukemia
SR leukemia = system: SR leukemia
NCI/ADR-RES ovarian = system: NCI/ADR-RES ovarian
SN12C renal = system: SN12C renal
SK-MEL-28 melanoma = system: SK-MEL-28 melanoma
NCI-H226 lung = system: NCI-H226 lung
EKVX NSCLC = system: EKVX NSCLC
HS 578T breast = system: HS 578T breast
HOP-92 NSCLC = system: HOP-92 NSCLC
NCI-H522 lung = system: NCI-H522 lung

## CCOP(=O)(OCC)C(C)(C)OC(=O)NC(F)(F)F
HL-60(TB) leukemia
  TGI: > 100 µM
COLO 205 colon
  TGI: > 100 µM
DU-145 prostate
  TGI: > 100 µM
SF-268 CNS
  TGI: > 100 µM
OVCAR-4 ovarian
  TGI: > 100 µM
SNB-75 CNS
  TGI: > 100 µM
OVCAR-5 ovarian
  TGI: > 100 µM
IGROV1 ovarian
  TGI: > 100 µM
CCRF-CEM leukemia
  TGI: > 100 µM
UACC-257 melanoma
  TGI: > 100 µM
UACC-62 melanoma
  TGI: > 100 µM
LOX IMVI melanoma
  TGI: > 100 µM
M14 melanoma
  TGI: > 100 µM
UO-31 renal
  TGI: > 100 µM
HT29 colon
  TGI: > 100 µM
RXF 393 renal
  TGI: > 100 µM
MDA-N
  TGI: > 100 µM
PC-3 prostate
  TGI: > 100 µM
OVCAR-3 ovarian
  TGI: > 100 µM
HCT-15 colon
  TGI: > 100 µM
HCT-116 colon
  TGI: > 100 µM
TK-10 renal
  TGI: > 100 µM
T-47D breast
  TGI: > 100 µM
SK-MEL-2 melanoma
  TGI: > 100 µM
KM12 colon
  TGI: > 100 µM
MALME-3M melanoma
  TGI: > 100 µM
CAKI-1 renal
  TGI: > 100 µM
HOP-62 NSCLC
  TGI: > 100 µM
MOLT-4 leukemia
  TGI: > 100 µM
ACHN renal
  TGI: > 100 µM
SNB-19 CNS
  TGI: > 100 µM
786-0 renal
  TGI: > 100 µM
SF-539 CNS
  TGI: > 100 µM
MCF7 breast
  TGI: > 100 µM
SK-OV-3 ovarian
  TGI: > 100 µM
MDA-MB-231 breast
  TGI: > 100 µM
SW-620 colon
  TGI: > 100 µM
OVCAR-8 ovarian
  TGI: > 100 µM
MDA-MB-435
  TGI: > 100 µM
BT-549 breast
  TGI: > 100 µM
NCI-H460 lung
  TGI: > 100 µM
SF-295 CNS
  TGI: > 100 µM
HCC-2998 colon
  TGI: > 100 µM
NCI-H23 lung
  TGI: > 100 µM
RPMI-8226 leukemia
  TGI: > 100 µM
A549 NSCLC
  TGI: > 100 µM
U251 CNS
  TGI: > 100 µM
SK-MEL-5 melanoma
  TGI: > 100 µM
K-562 leukemia
  TGI: > 100 µM
SR leukemia
  TGI: > 100 µM
NCI/ADR-RES ovarian
  TGI: > 100 µM
SN12C renal
  TGI: > 100 µM
SK-MEL-28 melanoma
  TGI: > 100 µM
NCI-H226 lung
  TGI: 99.6 µM
EKVX NSCLC
  TGI: > 100 µM
HS 578T breast
  TGI: > 100 µM

## CCC(=O)NC(Nc1ccccc1F)(C(F)(F)F)C(F)(F)F
HL-60(TB) leukemia
  TGI: > 100 µM
COLO 205 colon
  TGI: > 100 µM
DU-145 prostate
  TGI: > 100 µM
SF-268 CNS
  TGI: > 100 µM
OVCAR-4 ovarian
  TGI: > 100 µM
SNB-75 CNS
  TGI: > 100 µM
OVCAR-5 ovarian
  TGI: > 100 µM
IGROV1 ovarian
  TGI: > 100 µM
CCRF-CEM leukemia
  TGI: > 100 µM
UACC-257 melanoma
  TGI: > 100 µM
UACC-62 melanoma
  TGI: > 100 µM
LOX IMVI melanoma
  TGI: > 100 µM
M14 melanoma
  TGI: > 100 µM
UO-31 renal
  TGI: > 100 µM
HT29 colon
  TGI: > 100 µM
RXF 393 renal
  TGI: > 100 µM
MDA-N
  TGI: > 100 µM
PC-3 prostate
  TGI: > 100 µM
OVCAR-3 ovarian
  TGI: > 100 µM
HCT-15 colon
  TGI: > 100 µM
HCT-116 colon
  TGI: > 100 µM
TK-10 renal
  TGI: > 100 µM
T-47D breast
  TGI: > 100 µM
SK-MEL-2 melanoma
  TGI: > 100 µM
KM12 colon
  TGI: > 100 µM
CAKI-1 renal
  TGI: > 100 µM
MOLT-4 leukemia
  TGI: > 100 µM
HOP-92 NSCLC
  TGI: > 100 µM
ACHN renal
  TGI: > 100 µM
SNB-19 CNS
  TGI: > 100 µM
SF-539 CNS
  TGI: > 100 µM
MCF7 breast
  TGI: > 100 µM
NCI-H522 lung
  TGI: > 100 µM
SK-OV-3 ovarian
  TGI: > 100 µM
MDA-MB-231 breast
  TGI: > 100 µM
SW-620 colon
  TGI: > 100 µM
OVCAR-8 ovarian
  TGI: > 100 µM
MDA-MB-435
  TGI: > 100 µM
BT-549 breast
  TGI: > 100 µM
NCI-H460 lung
  TGI: > 100 µM
SF-295 CNS
  TGI: > 100 µM
HCC-2998 colon
  TGI: > 100 µM
NCI-H23 lung
  TGI: > 100 µM
RPMI-8226 leukemia
  TGI: > 100 µM
A549 NSCLC
  TGI: > 100 µM
U251 CNS
  TGI: > 100 µM
SK-MEL-5 melanoma
  TGI: > 100 µM
K-562 leukemia
  TGI: > 100 µM
SR leukemia
  TGI: > 100 µM
NCI/ADR-RES ovarian
  TGI: > 100 µM
SN12C renal
  TGI: > 100 µM
SK-MEL-28 melanoma
  TGI: > 100 µM
EKVX NSCLC
  TGI: > 100 µM
HS 578T breast
  TGI: > 100 µM

## CCOP(=O)(OCC)C(C)(CC)NC1=NC(C(F)(F)F)(C(F)(F)F)NC(=O)N1 (configuration not stated)
HL-60(TB) leukemia
  TGI: > 100 µM
COLO 205 colon
  TGI: > 100 µM
DU-145 prostate
  TGI: > 100 µM
SF-268 CNS
  TGI: > 100 µM
OVCAR-4 ovarian
  TGI: > 100 µM
SNB-75 CNS
  TGI: > 100 µM
OVCAR-5 ovarian
  TGI: > 100 µM
IGROV1 ovarian
  TGI: > 100 µM
CCRF-CEM leukemia
  TGI: > 100 µM
UACC-257 melanoma
  TGI: > 100 µM
UACC-62 melanoma
  TGI: > 100 µM
LOX IMVI melanoma
  TGI: > 100 µM
M14 melanoma
  TGI: > 100 µM
UO-31 renal
  TGI: > 100 µM
HT29 colon
  TGI: > 100 µM
RXF 393 renal
  TGI: > 100 µM
MDA-N
  TGI: > 100 µM
PC-3 prostate
  TGI: > 100 µM
OVCAR-3 ovarian
  TGI: > 100 µM
HCT-15 colon
  TGI: > 100 µM
HCT-116 colon
  TGI: > 100 µM
TK-10 renal
  TGI: > 100 µM
T-47D breast
  TGI: > 100 µM
SK-MEL-2 melanoma
  TGI: > 100 µM
KM12 colon
  TGI: > 100 µM
MALME-3M melanoma
  TGI: > 100 µM
CAKI-1 renal
  TGI: > 100 µM
HOP-62 NSCLC
  TGI: > 100 µM
MOLT-4 leukemia
  TGI: > 100 µM
HOP-92 NSCLC
  TGI: > 100 µM
ACHN renal
  TGI: > 100 µM
SNB-19 CNS
  TGI: > 100 µM
786-0 renal
  TGI: > 100 µM
SF-539 CNS
  TGI: > 100 µM
MCF7 breast
  TGI: > 100 µM
SK-OV-3 ovarian
  TGI: > 100 µM
MDA-MB-231 breast
  TGI: > 100 µM
SW-620 colon
  TGI: > 100 µM
OVCAR-8 ovarian
  TGI: > 100 µM
MDA-MB-435
  TGI: > 100 µM
BT-549 breast
  TGI: > 100 µM
NCI-H460 lung
  TGI: > 100 µM
SF-295 CNS
  TGI: > 100 µM
HCC-2998 colon
  TGI: > 100 µM
NCI-H23 lung
  TGI: > 100 µM
RPMI-8226 leukemia
  TGI: > 100 µM
A549 NSCLC
  TGI: > 100 µM
U251 CNS
  TGI: > 100 µM
SK-MEL-5 melanoma
  TGI: > 100 µM
K-562 leukemia
  TGI: > 100 µM
SR leukemia
  TGI: > 100 µM
NCI/ADR-RES ovarian
  TGI: > 100 µM
SN12C renal
  TGI: > 100 µM
SK-MEL-28 melanoma
  TGI: > 100 µM
NCI-H226 lung
  TGI: > 100 µM
EKVX NSCLC
  TGI: > 100 µM
HS 578T breast
  TGI: > 100 µM
